Where a name gives a salt, the structure may show the parent alone. Read-outs that look alike come from different tables or passages of the source.

Experimental findings from patent US20190062305A1, “PYRIDYL OR PYRAZINYL COMPOUNDS CARRYING A METHYL-BOUND ALPHA-AMINO ACID AMIDE GROUP” (ABBVIE DEUTSCHLAND GMBH & CO. KG, priority 2015, published 2019) are described below.

One data set has as its target T1, 5-HT2C receptor (Homo sapiens, UniProt P28335).
T1 construct: host or cells: U2OS
In words: Human 5-HT2C functional assay (beta-arrestin2 recruitment, U2OS_HTR2C_β-Arrestin cells). The format is cell-based. Particulars: for EC50: beta-arrestin2 recruitment, U2OS_HTR2C_β-Arrestin cells, 1.5 h incubation, read-out: EC50 5-HT2C (potency in functional assay); for Emax: relative efficacy vs response to 10 μM 5-HT or maximal 5-HT effect (100%). Summed up:
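U2OS cells expressing HTR2C with β-galactosidase complementation, switched to 1% serum medium 24 h post-plating, were treated next day with compound for 1.5 h; chemiluminescence read. Response expressed as % of 10 µM 5-HT or maximal 5-HT effect; EC50 from 4-parameter variable-slope fit.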
On the technique in general: Recruitment of arrestin is a read-out of receptor activation apart from second messengers.

Data set [1] is described as follows: Metabolic stability in human liver microsomes, unbound intrinsic clearance (Cl int/fu mic). Particulars: 0.5 μM compound, NADPH; for CLint scaled at 0.5 μM: pH 7.4, human liver microsomes 0.25 mg/mL, read-out: Cl int, mic unb. (h) [l/h/kg] (unbound intrinsic clearance, human). The format is in vitro ADME. Summed up:
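Compound (0.5 µM) was incubated with human liver microsomes (0.25 mg/mL) in pH 7.4 phosphate buffer at 37 °C with 1.0 mM NADPH, sampling from 0–30 min. Depletion was followed by LC-MS/MS, and CLint was derived from first-order t1/2 per mg protein. Microsomal unbound fraction came from 4 h equilibrium dialysis at 37 °C, giving CLint/fu mic.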

T1 sequence (P28335 33-458): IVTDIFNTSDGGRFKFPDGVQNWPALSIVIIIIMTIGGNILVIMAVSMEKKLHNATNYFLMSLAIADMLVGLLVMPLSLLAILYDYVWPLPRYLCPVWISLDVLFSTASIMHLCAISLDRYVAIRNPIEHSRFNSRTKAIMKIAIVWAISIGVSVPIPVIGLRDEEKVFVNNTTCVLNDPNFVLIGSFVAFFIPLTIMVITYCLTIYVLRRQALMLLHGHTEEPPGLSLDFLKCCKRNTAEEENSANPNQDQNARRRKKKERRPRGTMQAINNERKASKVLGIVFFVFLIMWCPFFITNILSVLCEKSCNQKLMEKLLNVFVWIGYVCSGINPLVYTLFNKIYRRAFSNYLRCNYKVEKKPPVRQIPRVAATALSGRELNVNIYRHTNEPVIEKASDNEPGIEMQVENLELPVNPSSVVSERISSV
T1 sequence (P32121 whole entry partner): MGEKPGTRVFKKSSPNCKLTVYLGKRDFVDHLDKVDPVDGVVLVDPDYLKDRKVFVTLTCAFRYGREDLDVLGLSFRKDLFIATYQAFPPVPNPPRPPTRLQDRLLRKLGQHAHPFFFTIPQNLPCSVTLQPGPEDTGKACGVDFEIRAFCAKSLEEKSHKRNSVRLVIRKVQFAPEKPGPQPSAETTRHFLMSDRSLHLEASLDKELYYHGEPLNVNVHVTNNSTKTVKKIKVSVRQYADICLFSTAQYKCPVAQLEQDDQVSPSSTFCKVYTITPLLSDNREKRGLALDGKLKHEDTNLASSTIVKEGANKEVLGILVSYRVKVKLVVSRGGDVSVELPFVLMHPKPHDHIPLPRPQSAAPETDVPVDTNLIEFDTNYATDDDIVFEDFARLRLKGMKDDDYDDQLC

As for `COc1nc(C2CCCOC2)c(F)cc1CNC(=O)[C@@H]1CCCN1` (stereo partly drawn) [Example 158, (2S)—N-[(5-Fluoro-2-methoxy-6-tetrahydropyran-3-yl-3-pyridyl)methyl]-pyrrolidine-2-carboxamide Hydrochloride], on 5-HT2C receptor, the EC50 lay within 20 to 200 nM and the Emax was above 70%. For the same molecule, the CLint scaled at 0.5 μM in data set [1] (human, liver microsomes) is below 5 L/h/kg.

Regarding `COc1nc(C2CC2)c(F)cc1CNC(=O)[C@@H]1CCCN1` [Example 127, (2S)—N-[(6-Cyclopropyl-5-fluoro-2-methoxy-3-pyridyl)methyl]pyrrolidine-2-carboxamide; 2,2,2-trifluoroacetic Acid], at 5-HT2C receptor, the EC50 was 200 to 1000 nM and the Emax was above 70%. For the same molecule, the CLint scaled at 0.5 μM in data set [1] (human, liver microsomes) lay in the range of 5 to 50 L/h/kg.

Turning to `COc1nc(N(C)C2CCC(F)(F)CC2)c(F)cc1CNC(=O)[C@@H]1CCCN1` [Example 154, (2S)—N-[[6-[N-(4,4-Difluorocyclohexyl)-N-methyl-amino]-5-fluoro-2-methoxy-3-pyridyl]methyl]pyrrolidine-2-carboxamide; 2,2,2-trifluoroacetic Acid], on 5-HT2C receptor, the EC50 was 20 to 200 nM and the Emax is above 70%. For the same molecule, the CLint scaled at 0.5 μM in data set [1] (human, liver microsomes) lay in the range of 5 to 50 L/h/kg.

Regarding `COc1nc(OCC(F)(F)C(F)(F)F)c(F)cc1CNC(=O)[C@@H]1CCCN1` [Example 18, (2S)—N-[[5-Fluoro-2-methoxy-6-(2,2,3,3,3-pentafluoropropoxy)-3-pyridyl]methyl]-pyrrolidine-2-carboxamide; Succinic Acid], at 5-HT2C receptor, the EC50 was below 20 nM and the maximum response (Emax) is above 70%. Also, the CLint scaled at 0.5 μM in data set [1] (human, liver microsomes) is below 5 L/h/kg.

With `COc1nc(N2CC3C(C2)C3(F)F)c(F)cc1CNC(=O)[C@@H]1CCCN1` (stereo partly drawn) [Example 183, (2S)—N-[[6-(6,6-Difluoro-3-azabicyclo[3.1.0]hexan-3-yl)-5-fluoro-2-methoxy-3-pyridyl]methyl]pyrrolidine-2-carboxamide], on 5-HT2C receptor, the EC50 lay in the range of 20 to 200 nM and the Emax was above 70%. Also, the CLint scaled at 0.5 μM in data set [1] (human, liver microsomes) was 5 to 50 L/h/kg.

As for `COc1nc(OCC2CC(F)(F)C2)c(F)cc1CNC(=O)[C@@H]1CCCN1` [Example 42, (2S)—N-[[6-[(3,3-Difluorocyclobutyl)methoxy]-5-fluoro-2-methoxy-3-pyridyl]-methyl]pyrrolidine-2-carboxamide; Succinic Acid], on 5-HT2C receptor, the EC50 was below 20 nM and the Emax is above 70%. In addition, in data set [1] (human, liver microsomes), the CLint scaled at 0.5 μM is below 5 L/h/kg.

Turning to `COc1nc(O[C@H]2CC[C@@H](F)CC2)c(F)cc1CNC(=O)[C@@H]1CCCN1C` [Example 29, (2S)—N-[[5-Fluoro-6-(cis-4-fluorocyclohexoxy)-2-methoxy-3-pyridyl]methyl]-1-methyl-pyrrolidine-2-carboxamide; Fumaric Acid], on 5-HT2C receptor, the EC50 was below 20 nM and the Emax was above 70%. Also, the CLint scaled at 0.5 μM in data set [1] (human, liver microsomes) is below 5 L/h/kg.

For the molecule `COc1nc(OC2CCCC3C2C3(F)F)c(F)cc1CNC(=O)[C@@H]1CCCN1` (stereo partly drawn) [Example 95, (2S)—N-[[6-(7,7-Difluoronorcaran-2-yl)oxy-5-fluoro-2-methoxy-3-pyridyl]methyl]-pyrrolidine-2-carboxamide], on 5-HT2C receptor, the EC50 was below 20 nM and the Emax is above 70%. The CLint scaled at 0.5 μM in data set [1] (human, liver microsomes) was in the range of 5 to 50 L/h/kg.

Turning to `COc1nc(OC2CC(F)(F)C2(F)F)c(F)cc1CNC(=O)[C@@H]1CCCN1` (stereo partly drawn) [Example 112, (2S)—N-[[5-Fluoro-2-methoxy-6-(2,2,3,3-tetrafluorocyclobutoxy)-3-pyridyl]methyl]pyrrolidine-2-carboxamide; 2,2,2-trifluoroacetic Acid], on 5-HT2C receptor, the EC50 is below 20 nM and the Emax was above 70%. For the same molecule, the CLint scaled at 0.5 μM in data set [1] (human, liver microsomes) was below 5 L/h/kg.

Turning to `COc1nc(OCC(F)(F)C(F)(F)C(F)(F)F)c(F)cc1CNC(=O)[C@@H]1CCCN1` [Example 110, (2S)—N-[[5-Fluoro-6-(2,2,3,3,4,4,4-heptafluorobutoxy)-2-methoxy-3-pyridyl]-methyl]pyrrolidine-2-carboxamide Hydrochloride], at 5-HT2C receptor, the EC50 was below 20 nM and the maximum response (Emax) was above 70%. Further, the CLint scaled at 0.5 μM in data set [1] was 5 to 50 L/h/kg.

As to `COc1nc(OCC2CC2(F)F)c(F)cc1CN(C)C(=O)[C@@H]1CCCN1` (stereo partly drawn) [Example 77, (2S)—N-[[6-[(2,2-Difluorocyclopropyl)methoxy]-5-fluoro-2-methoxy-3-pyridyl]-methyl]-N-methyl-pyrrolidine-2-carboxamide Hydrochloride], on 5-HT2C receptor, the EC50 is below 20 nM and the Emax was above 70%. For the same molecule, the CLint scaled at 0.5 μM in data set [1] (human, liver microsomes) is below 5 L/h/kg.

On to `COc1nc(N2CCCCCC2)c(F)cc1CNC(=O)[C@@H]1CCCN1` [Example 155, (2S)—N-[[6-(Azepan-1-yl)-5-fluoro-2-methoxy-3-pyridyl]methyl]pyrrolidine-2-carboxamide; 2,2,2-trifluoroacetic Acid], for which, at 5-HT2C receptor, the EC50 is 20 to 200 nM and the Emax was above 70%. For the same molecule, the CLint scaled at 0.5 μM in data set [1] (human, liver microsomes) is 5 to 50 L/h/kg.

As to `COc1nc(OCC2(C(F)(F)F)CC2)c(F)cc1CNC(=O)[C@@H]1CCCN1C` [Example 63, (2S)—N-[[5-Fluoro-2-methoxy-6-[[1-(trifluoromethyl)cyclopropyl]methoxy]-3-pyridyl]methyl]-1-methyl-pyrrolidine-2-carboxamide Hydrochloride], at 5-HT2C receptor, the EC50 was below 20 nM and the Emax was above 70%. In data set [1] (human, liver microsomes), the CLint scaled at 0.5 μM was below 5 L/h/kg.

Turning to `COc1nc(OCC2CCCCC2)c(F)cc1CNC(=O)[C@@H]1CCCN1` [Example 3, (2S)—N-[[6-(Cyclohexylmethoxy)-5-fluoro-2-methoxy-3-pyridyl]methyl]pyrrolidine-2-carboxamide; 2,2,2-trifluoroacetic acid], on 5-HT2C receptor, the EC50 was below 20 nM and the Emax is above 70%. Moreover, the CLint scaled at 0.5 μM in data set [1] (human, liver microsomes) lay within 5 to 50 L/h/kg.

Turning to `COc1nc(N2CCCC(F)C2)c(F)cc1CNC(=O)[C@@H]1CCCN1` (stereo partly drawn) [Example 161, (2S)—N-[[5-Fluoro-6-(3-fluoro-1-piperidyl)-2-methoxy-3-pyridyl]methyl]-pyrrolidine-2-carboxamide; 2,2,2-trifluoroacetic Acid], on 5-HT2C receptor, the EC50 lay in the range of 20 to 200 nM and the Emax fell in the range of 50 to 70%. Moreover, the CLint scaled at 0.5 μM in data set [1] (human, liver microsomes) is below 5 L/h/kg.

Take `COc1nc(OCC(F)(F)C(F)(F)C(F)(F)F)c(F)cc1CN(C)C(=O)[C@@H]1CCCN1` [Example 117, (2S)—N-[[5-Fluoro-6-(2,2,3,3,4,4,4-heptafluorobutoxy)-2-methoxy-3-pyridyl]-methyl]-N-methyl-pyrrolidine-2-carboxamide Hydrochloride]: at 5-HT2C receptor, the EC50 is below 20 nM and the Emax was in the range of 50 to 70%. Besides, the CLint scaled at 0.5 μM in data set [1] was in the range of 5 to 50 L/h/kg.

As for `COc1nc(O[C@H]2CC[C@H](C(F)(F)F)CC2)c(F)cc1CN(C)C(=O)[C@@H]1CCCN1` [Example 116, (2S)—N-[[5-Fluoro-2-methoxy-6-[trans-4-(trifluoromethyl)cyclohexoxy]-3-pyridyl]methyl]-N-methyl-pyrrolidine-2-carboxamide Hydrochloride], on 5-HT2C receptor, the EC50 was 20 to 200 nM and the Emax lay within 50 to 70%. Moreover, in data set [1] (human, liver microsomes), the CLint scaled at 0.5 μM lay in the range of 5 to 50 L/h/kg.

For the molecule `COc1nc(OC2CCCC2F)c(F)cc1CNC(=O)[C@@H]1CCCN1` (stereo partly drawn) [Example 93, (2S)—N-[[5-Fluoro-6-(2-fluorocyclopentoxy)-2-methoxy-3-pyridyl]methyl]-pyrrolidine-2-carboxamide; 2,2,2-trifluoroacetic Acid], on 5-HT2C receptor, the EC50 was below 20 nM and the Emax is above 70%. In data set [1] (human, liver microsomes), the CLint scaled at 0.5 μM is below 5 L/h/kg.

For `COc1nc(OC2CCC(F)(F)C2)c(F)cc1CNC(=O)[C@@H]1CCCN1C` (stereo partly drawn) [Example 23, (2S)—N-[[6-(3,3-Difluorocyclopentoxy)-5-fluoro-2-methoxy-3-pyridyl]methyl]-1-methyl-pyrrolidine-2-carboxamide; Fumaric Acid], on 5-HT2C receptor, the EC50 was below 20 nM and the maximal response (Emax) was above 70%. Besides, the CLint scaled at 0.5 μM in data set [1] (human, liver microsomes) is below 5 L/h/kg.

Consider `COc1nc(NC2CCC(C(F)(F)F)CC2)c(F)cc1CNC(=O)[C@@H]1CCCN1` (stereo partly drawn) [Example 130, (2S)—N-[[5-Fluoro-2-methoxy-6-[[4-(trifluoromethyl)cyclohexyl]amino]-3-pyridyl]methyl]pyrrolidine-2-carboxamide], for which, on 5-HT2C receptor, the EC50 was below 20 nM and the Emax is above 70%. Further, the CLint scaled at 0.5 μM in data set [1] (human, liver microsomes) was in the range of 5 to 50 L/h/kg.

As for `COc1nc(OC2CC(F)(F)C2)c(F)cc1CNC(=O)[C@@H]1CCCN1C` [Example 71, (2S)—N-[[6-(3,3-Difluorocyclobutoxy)-5-fluoro-2-methoxy-3-pyridyl]methyl]-1-methyl-pyrrolidine-2-carboxamide Hydrochloride], on 5-HT2C receptor, the EC50 is below 20 nM and the Emax is above 70%. Also, the CLint scaled at 0.5 μM in data set [1] (human, liver microsomes) was below 5 L/h/kg.

Turning to `COc1nc(N[C@H]2CC[C@@H](C(F)(F)F)CC2)c(F)cc1CNC(=O)[C@@H]1CCCN1` [Example 141, (2S)—N-[[5-Fluoro-2-methoxy-6-[[cis-4-(trifluoromethyl)cyclohexyl]amino]-3-pyridyl]methyl]pyrrolidine-2-carboxamide], on 5-HT2C receptor, the EC50 is below 20 nM and the Emax was above 70%. Further, in data set [1] (human liver microsomes 0.25 mg/mL), the “Cl int, mic unb. (h) [l/h/kg] (unbound intrinsic clearance, human)” value is listed as “+ (from 50 to 500 l/h/kg)”.

The term EC50 denotes the concentration at which the effect is half-maximal. A word on the Emax: it is the size of the effect at its maximum, as opposed to the concentration needed.
